US11986482B2, “Method of promoting antitumor or anti-cancer immunity” (City University of Hong Kong, priority 2021, dated 2024)
Entries after “also recorded” stand apart in the source; their conditions may differ.

Assays:
HeLa cells = assay: DQ-BSA endocytic trafficking assay; format: cell-based; conditions: 1 μM, 3 h then 6 h with 10 μg/ml DQ-green BSA, flow cytometry
Experimental: A DQ-BSA endocytic trafficking assay screens these compounds. DQ-BSA, a self-quenching dye, is internalized into the cytoplasm by endocytosis, after which it is delivered to the lysosomes for degradation to relieve fluorescence-quenching, resulting in bright fluorescence in cells. HeLa cells are plated on 6-well plates and treated with the indicated compound for 3 h. Then, cells are replaced with Trafficking media containing 10 μg/ml DQ-green BSA with or without drugs (1 μM) and incubated at 37° C. in a 5% CO2 humidified cell culture chamber another 6 h followed by Flow cytometry analysis. […] Inventors also test whether these hit compounds can inhibit the recycling endosomal pathway by performing the fluorescent transferrin conjugates recycling assay. Iron-bound transferrin interacts with its receptor (TfR) to trigger the internalization of the iron-transferrin-TfR complex via clathrin-mediated endocytosis. Fe^3+ irons are subsequently dissociated from their ligands in the acidic endosome environment and released into the cytoplasm. […] Thus, the fluorescence intensity of fluorescent transferrin conjugates-labeled cells can reflect the recycling endocytic trafficking process. […] Cells are collected for flow cytometry analysis, and the mean fluorescence intensity of transferrin is quantified.

EGFR = EGFR degradation assay (EGF-488); format: cell-based; conditions: HeLa cells, 6J1 1 μM 3 h, EGF-488 2 μg/ml, 2 h of EGF treatment
Experimental: Furthermore, HeLa cells are pretreated with DMSO or 6J1 (1 μM) for 3 h. Then, cells are incubated with EGF-488 (2 μg/ml) on ice for 1 h followed by incubating in the complete medium at 37° C. in a CO2 incubator. Cells are fixed at the indicated times and imaged.

PD-L1 = assay: Western blot of PD-L1 in exosomes of 4T1 cells; format: cell-based, mouse; conditions: 1 μM
Experimental: The current PD-L1 and PD1 therapies apply PD-L1 or PD1 monoclonal antibodies to block the PD-L1/PD1 signaling, which results in cytotoxic T cells recognizing and killing the tumor cells. […] First, flow cytometry-based quantification of plasma membrane levels of PD-L1 in 4T1 cells treated with or without 6J1 (1 μM) for 24 h. 4T1 cells are treated with or without 6J1 (1 μM) for 24 h. The supernatant is collected, and the concentration of extracellular vesicle is determined using a Nanosight nanoparticle analyzer in FIG. 8b. The exosomes are also collected and subjected to western blot analysis of the EVs marker and PD-L1 in FIG. 8c.
Therefore, it is possible that the increased exosomal PD-L1 secretion induced by 6J1 may still suppress the tumor-infiltrating T cell cytotoxicity in vivo, even though 6J1 reduces the cell surface expression level of PD-L1 on the tumor cells. To evaluate the role of exosomal PD-L1 in the tumor microenvironment and tumor progression in mice, inventors knock out Rab27a in 4T1 cells to inhibit the secretion of exosomes. 4T1-shNC or 4T1-shRab27A cells are treated with or without 6J1 (1 μM). The supernatant is collected, and the concentration of extracellular vesicle is determined using a Nanosight nanoparticle analyzer. […] Inventors analyze the plasma membrane levels of PD-L1 in 4T1-shNC or 4T1-shRab27A cells treated with or without 6J1 (1 μM). […]

[1] = system: Rab27a-knockout 4T1 cells; assay: 4T1-shRab27A (Rab27a-knockout) orthotopic tumors in Balb/c mice; format: in vivo, mouse
Experimental: Therefore, it is possible that the increased exosomal PD-L1 secretion induced by 6J1 may still suppress the tumor-infiltrating T cell cytotoxicity in vivo, even though 6J1 reduces the cell surface expression level of PD-L1 on the tumor cells. To evaluate the role of exosomal PD-L1 in the tumor microenvironment and tumor progression in mice, inventors knock out Rab27a in 4T1 cells to inhibit the secretion of exosomes. 4T1-shNC or 4T1-shRab27A cells are treated with or without 6J1 (1 μM). The supernatant is collected, and the concentration of extracellular vesicle is determined using a Nanosight nanoparticle analyzer. […] Inventors analyze the plasma membrane levels of PD-L1 in 4T1-shNC or 4T1-shRab27A cells treated with or without 6J1 (1 μM). […] Next, control or Rab27a-knockout 4T1 cells are orthotopically transplanted into syngeneic fat pads of female Balb/c. The mice are randomly divided (n=5 per group) and treated with either buffer or 6J1 (30 mg/kg, daily) via oral gavage. […] Inventors also perform the immunostaining of CD8 and Granzyme B in the tumor sections. […] Since enhanced antitumor immunity leads to increased apoptosis in tumors, inventors assess the levels of cleaved caspase3 (CCA3), one of the markers of apoptosis, in tumor sections as well.

[2] = system: HeLa, A549 and MDA-MB-231 cell lines; assay: Cytotoxicity, Hochest 33342 cell number; format: cell-based; conditions: 24 h or 48 h
Experimental: (§1) The inventors also test the cytotoxicity of 6J1 in several cancer cell lines, HeLa, A549 and MDA-MB-231 cell lines. Cells are grown in 96-well plates in triplicate and treated with or without 6J1 at the concentrations of 0, 0.01, 0.1, 1, 10 and 100 μM indicated for 24 h or 48 h. They are then stained with propidium iodide (PI) or Hochest 33342 to measure the cell death ratio and cell number, respectively. […] Inventors also test the cytotoxicity of 6J1 in 4T1 cells. 4T1 cells are plated in 96-well plates in triplicate and treated with or without 6J1 at the concentrations of 0, 0.01, 0.1, 1, 5, 10, 20, 40, 80 and 100 μM indicated for 24 h or 48 h. The cell viability was then quantified via the MTT assay.

4T1 cells = assay: Cell viability of 4T1 cells, MTT assay; format: cell-based; conditions: ≤1 μM, 24 h or 48 h
Experimental: as §1

[3] = Subchronic toxicity in Balb/C mice, 4 weeks oral; format: in vivo, mouse; conditions: 30 mg/kg per day
Experimental: Last, inventors investigate the in vivo toxicity of 6J1 in mice. 6-week-old Balb/C mice are treated with […] (PEG400/Ethanol/tween80, 1:1:1) or 6J1 (30 mg/kg, per day) via oral route for 4 weeks. Clinical observations, e.g., food consumption, body weight changes, and ophthalmic exams, are performed every three days. Tissue weight index (tissue weight/body weight×100%) are measured. […] 6J1 has no effects on mouse weight gain and weights of various organs (FIGS. 18a and 18b). At the end of experiment, the blood is collected from mice in each group for AST, ALT, and ALP measurement. The mice are then sacrificed, and the major organs are isolated, examined, and subjected to H&E staining.

[4] = Rab27a-knockout 4T1 cells, 6J1 30 mg/kg, daily, oral gavage
[5] = Rab27a-knockout 4T1 cells, 6J1 30 mg/kg, daily, oral gavage, 30 mg/kg

Structure (SMILES): OCCOCCN(c1ccccc1)c1nc(N/N=C/c2cccc(I)c2)nc(N2CCOCC2)n1 [Compound 6J1]
- endocytic trafficking (fluorescence intensity of DQ-BSA-labeled cells) (HeLa cells): dramatically inhibit endocytic trafficking
- EGFR degradation (EGFR): blocks the EGFR degradation
- 6J1-induced exosomal PD-L1 levels (PD-L1; 4T1-shRab27A cells): significantly inhibits
- secretion of PD-L1 in exosomes (PD-L1; 4T1 cells, 24 h): induces the secretion of PD-L1 in exosomes
- activated tumor-infiltrating CD8+ T cell population and expression of IFN-γ vs other groups [1, 4]: significantly increased
- tumor growth and tumor burden vs other groups [1, 4]: significantly smaller
- cleaved caspase3 (CCA3) apoptotic signals in tumors vs other groups [1, 5]: Stronger clustered apoptotic signals
- infiltrated CD8+ T cells in tumor sections (immunostaining) vs other groups [1, 5]: More infiltrated CD8+ T cells are detected; also recorded: more infiltrated CD8^+ T cells are detected
- overall survival of mice bearing orthotopic 4T1 tumors vs other groups ([1]; combination of Rab27a knockout and 6J1 treatment): substantially prolongs the overall survival
- cell proliferation (cell number) ([2]; 0.01-100 μM): inhibits cell proliferation in a concentration-dependent manner
- cell proliferation at effective concentrations ([2]; ≤1 μM, several cell types): only subtly inhibits cell proliferation
- proliferation of 4T1 cells (4T1 cells): little effect
- behavior [3]: no signs of behavior abnormality
- liver function test (AST, ALT, ALP in blood) [3]: no apparent changes in liver function test
- mouse weight gain [3]: no effects
- pathological changes in major organs (H&E staining) [3]: no signs of pathological changes in major organs
- weights of various organs (tissue weight index) [3]: no effects
